According to patent US11773086B2, “Fungal modulators” (TRUSTEES OF BOSTON UNIVERSITY, priority 2020, dated 2023):

Assays:
C. albicans (SN95) = test: Azoffluxin dose-response with background fluconazole; assay type: cell-based, Candida albicans; settings: fluconazole-sensitive laboratory strain SN95, background FLC 4 μg/mL
Procedure: FIGS. 2A-2E illustrate the above-described screening of the BU-CMD which identified azoffluxin as a fluconazole (FLC) potentiator against C. auris. […] Growth, as determined by optical density at 600 nm (OD600), is plotted in the presence of each CMD compound alone on the y-axis and in combination with FLC on the x-axis. Dotted lines represent 7-median absolute deviations from the median for each condition. […] FIG. 2B depicts the synergistic interactions. […] Growth was measured by the OD600 and normalized to the no drug control (see color bar). The fractional inhibitory concentration index (FICI) was calculated to determine the chemical interaction, with a value below 0.5 indicating synergy. […] FIG. 2D depicts FLC Etest strips in the presence and absence of 50 μM azoffluxin. […]
Compound potency was assessed alone by dose response assays or in combination with another compound by dose-response matrixes in 96-well plates, or 384-well, flat-bottom, microtiter plates (Corning) as previously described. […] Growth was quantified by measuring OD600 and corrected for medium background. All strains were assessed in biological duplicate experiments with technical duplicates. […] For dose-response matrixes fractional inhibitory concentration index at 90% growth inhibition (FICI90) was calculated as previously described. […]

293T cells = 293T cells grown without C. auris (luciferase signal); assay type: cell-based, human; settings: 293T cells without C. auris, any treatment condition
Procedure: FIG. 10A depicts mammalian embryonic kidney (293T) cells expressing luciferase used to quantify mammalian cell growth in co-culture. Mammalian cells were seeded in 384-well plates in DMEM medium at 5×10^5 cells/mL overnight. After 24 hours the indicated concentration of compound (⋅ indicates combo treatment concentrations) was added along with 2.5×10^3 cells/mL of C. auris. Co-cultures were incubated for 48 hours at 37° C. and then the luminescence was measured as an output of mammalian cell growth. Error represents standard deviation between technical quadruplicates, (***) indicates a p-value<0.001 between 293T cells alone and co-culture growth for each condition. […] FIG. 10C depicts checkerboard assays performed as described in FIG. 2B with C. auris Clade IV isolate B11801. Relative growth was measured after 24 hours using OD600 and normalized to no-drug control wells (see color bar). The FICI calculated for each checkerboard is shown in the top right of each plot, with values<0.5 indicating synergy. FIG. 10D depicts kidney fungal burden (CFU) in mice from each treatment group (n=3) that had been infected with C. auris B11801. […] The significance of differences between combination treatment and treatment with each compound alone was determined by two-tailed unpaired student t-test, (***) p-value<0.001. […]

C. neoformans = test: Fluconazole efficacy with azoffluxin; assay type: cell-based, Cryptococcus neoformans; settings: despite increasing Nile red
Description: FIGS. 11A and 11B illustrate Nile red Accumulation in C. albicans, C. glabrata, and C. neoformans.

C=C(C)C[C@@H](O)COc1cc2c(cc1C1(c3cc4c(cc3OC[C@H](O)CC(=C)C)OCO4)C(=O)Nc3cc(F)ccc31)OCO2 [CMLD012336]
enhancement of fluconazole activity (C. albicans (SN95)): did not enhance the activity of fluconazole
mammalian cytotoxicity (293T cells): no detectable mammalian cytotoxicity
enhancement of fluconazole efficacy (C. neoformans): did not enhance the efficacy of fluconazole
